From patent publication US20090247559A1 (Exelixis, Inc., priority 2007, published 2009)

Tests used:
[1] = target: PIM (PIM-1, PIM-2, and/or PIM-3); assay: PIM-1, PIM-2 and PIM-3 inhibition, biochemical chemiluminescence assays (Kinase Glo, IC50 determination); settings: Table 1 activity class; PIM refers to PIM-1, PIM-2, and/or PIM-3; read-out: PIM IC50 (Activity B)
Description: (§1) The IC50 evaluation of compounds against the PIM-1 oncogene was performed in a Chemiluminesence assay utilizing a Greiner 384-well white medium binding white plate format. […] Following an incubation period of 120 minutes at ambient temperature (24-27° C.), 10 μL of Kinase Glo (Promega) was added. The luminescence was measured following a Luminescence Protocol on a Victor plate reader.
as §1, with “PIM-2” for “PIM-1”, “format. […] The assay procedure involves compound dilution followed by addition of 3 nM PIM-2 to the designated well plates and subsequent pre-incubation of the compounds with the enzyme for 30 minutes at ambient temperature (24-27° C.).” for “format.”
as §1, with “PIM-3 Oncogene” for “PIM-1 oncogene”

[2] = target: CK2 (Homo sapiens, UniProt P68400); assay: CK2 inhibition, biochemical chemiluminescence holoenzyme assay (Kinase Glo, IC50 determination); settings: Table 1 activity class; symbol given only if active; read-out: CK2 IC50 (Activity C)
Description: Characterization of CK2 Inhibition in a Biochemical Chemiluminesence Assay (IC50 Determination):
The IC50 evaluation of compounds against CK2 was performed in a Chemiluminesence Holoenzyme assay utilizing a Greiner 384-well white medium binding white plate format. […] The assay procedure involves the compound dilution scheme followed by addition of 10 μL of the substrate twice, followed by 10 μL twice of the respective enzyme or buffer to the designated well plates and subsequent pre-incubation of the compounds. Following an incubation period of 150 minutes at ambient temperature (24-27° C.), 10 μL of Kinase Glo (Promega) was added. The luminescence was measured following a Luminescence Protocol on a Victor plate reader.

Sequence of CK2 (P68400 whole entry): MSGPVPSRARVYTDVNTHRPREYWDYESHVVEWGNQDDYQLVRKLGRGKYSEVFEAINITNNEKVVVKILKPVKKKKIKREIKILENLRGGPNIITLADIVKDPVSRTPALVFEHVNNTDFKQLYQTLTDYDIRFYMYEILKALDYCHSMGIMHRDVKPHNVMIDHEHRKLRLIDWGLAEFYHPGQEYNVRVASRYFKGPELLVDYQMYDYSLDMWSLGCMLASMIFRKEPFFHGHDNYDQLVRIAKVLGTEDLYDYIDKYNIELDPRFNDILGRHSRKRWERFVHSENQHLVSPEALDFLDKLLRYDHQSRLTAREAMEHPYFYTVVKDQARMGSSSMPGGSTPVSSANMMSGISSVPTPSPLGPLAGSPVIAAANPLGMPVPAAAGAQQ
Sequence of CK2 (P67870 whole entry partner): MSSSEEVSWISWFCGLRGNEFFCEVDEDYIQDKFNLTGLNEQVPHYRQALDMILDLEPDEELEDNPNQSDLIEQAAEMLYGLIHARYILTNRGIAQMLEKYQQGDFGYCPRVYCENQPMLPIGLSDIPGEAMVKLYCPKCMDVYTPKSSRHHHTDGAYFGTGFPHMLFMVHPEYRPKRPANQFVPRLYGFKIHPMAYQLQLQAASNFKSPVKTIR

IC50 [1] | IC50 [2] | SMILES
< 10 µM | < 10 µM | CN1CCN(c2ccc(CNCc3nc4c(oc5ccc(Br)cc54)c(=O)[nH]3)cc2)CC1 [Compound 4, 8-bromo-2-[({[4-(4-methylpiperazin-1-yl)phenyl]methyl}amino)methyl][1]benzofuro[3,2-d]pyrimidin-4(3H)-one]
< 10 µM | < 10 µM | O=c1[nH]c(Cn2ccnc2)nc2c1oc1ccc(Br)cc12 [Compound 6, 8-bromo-2-(1H-imidazol-1-ylmethyl)[1]benzofuro[3,2-d]pyrimidin-4(3H)-one]
< 10 µM | < 10 µM | CN(C)c1ccccc1CNCc1nc2c(oc3ccc(Br)cc32)c(=O)[nH]1 [Compound 10, 8-bromo-2-[({[2-(dimethylamino)phenyl]methyl}amino)methyl][1]benzofuro[3,2-d]pyrimidin-4(3H)-one]
< 10 µM | < 10 µM | O=c1[nH]c(CNc2ccccc2Cl)nc2c1oc1ccc(Br)cc12 [Compound 11, 8-bromo-2-{[(2-chlorophenyl)amino]methyl}[1]benzofuro[3,2-d]pyrimidin-4(3H)-one]
 | < 10 µM | O=c1[nH]c(CNc2cccc(F)c2)nc2c1oc1ccc(Br)cc12 [Compound 12, 8-bromo-2-{[(3-fluorophenyl)amino]methyl}[1]benzofuro[3,2-d]pyrimidin-4(3H)-one]
< 10 µM | < 10 µM | CN1CCN(c2cccc(CNCc3nc4c(oc5ccc(Br)cc54)c(=O)[nH]3)c2)CC1 [Compound 14, 8-bromo-2-[({[3-(4-methylpiperazin-1-yl)phenyl]methyl}amino)-methyl][1]benzofuro[3,2-d]pyrimidin-4(3H)-one]
< 10 µM | < 10 µM | O=c1[nH]c(COc2ccccc2)nc2c1oc1ccc(Br)cc12 [Compound 15, 8-bromo-2-[(phenyloxy)methyl][1]benzofuro[3,2-d]pyrimidin-4(3H)-one]
< 10 µM | < 10 µM | O=c1[nH]c(CNc2ccccc2)nc2c1oc1ccc(Br)cc12 [Compound 16, 8-bromo-2-[(phenylamino)methyl][1]benzofuro[3,2-d]pyrimidin-4(3H)-one]
< 10 µM | < 10 µM | CN(C)C1CCN(Cc2nc3c(oc4ccc(Br)cc43)c(=O)[nH]2)C1 (stereo not drawn) [Compound 17, 8-bromo-2-{[3-(dimethylamino)pyrrolidin-1-yl]methyl}[1]benzofuro[3,2-d]pyrimidin-4(3H)-one]
< 10 µM | < 10 µM | CN(Cc1nc2c(oc3ccc(Br)cc32)c(=O)[nH]1)c1ccccc1Cl [Compound 18, 8-bromo-2-{[(2-chlorophenyl)(methyl)amino]methyl}[1]benzofuro[3,2-d]pyrimidin-4(3H)-one]
< 10 µM | < 10 µM | O=c1[nH]c(CNc2ccccc2F)nc2c1oc1ccc(Br)cc12 [Compound 19, 8-bromo-2-{[(2-fluorophenyl)amino]methyl}[1]benzofuro[3,2-d]pyrimidin-4(3H)-one]
< 10 µM | < 10 µM | CN(C)c1cccc(CNCc2nc3c(oc4ccc(Br)cc43)c(=O)[nH]2)c1 [Compound 21, 8-bromo-2-[({[3-(dimethylamino)phenyl]methyl}amino)methyl][1]benzofuro[3,2-d]pyrimidin-4(3H)-one]
< 10 µM | < 10 µM | O=c1[nH]c(CN2CCOCC2)nc2c1oc1ccc(Br)cc12 [Compound 24, 8-bromo-2-(morpholin-4-ylmethyl)[1]benzofuro[3,2-d]pyrimidin-4(3H)-one]
< 10 µM | < 10 µM | O=c1[nH]c(-c2c(Cl)cccc2Cl)nc2c1oc1ccc(Br)cc12 [Compound 36, 8-Bromo-2-(2,6-dichlorophenyl)[1]benzofuro[3,2-d]pyrimidin-4(3H)-one]
< 10 µM | < 10 µM | O=c1[nH]c(-c2cc(Cl)ccc2Cl)nc2c1oc1ccc(Br)cc12 [Compound 37, 8-Bromo-2-(2,5-dichlorophenyl)[1]benzofuro[3,2-d]pyrimidin-4(3H)-one]
< 10 µM | < 10 µM | O=c1[nH]c(-c2ccccc2Br)nc2c1oc1ccc(Br)cc12 [Compound 38, 8-Bromo-2-(2-bromophenyl)[1]benzofuro[3,2-d]pyrimidin-4(3H)-one]
< 10 µM | < 10 µM | CN(C)c1ccc(-c2nc3c(oc4ccc(Br)cc43)c(=O)[nH]2)c(Cl)c1 [Compound 41, 8-bromo-2-[2-chloro-4-(dimethylamino)phenyl][1]benzofuro[3,2-d]pyrimidin-4(3H)-one]

IC50 [1] | IC50 [2] | SMILES
< 10 µM | < 10 µM | Cc1cc(N)ccc1-c1nc2c(oc3ccc(Br)cc32)c(=O)[nH]1 [Compound 50, 2-(4-amino-2-methylphenyl)-8-bromo[1]benzofuro[3,2-d]pyrimidin-4(3H)-one]
< 10 µM | < 10 µM | O=c1[nH]c(-c2ccccc2O)nc2c1oc1ccc(Br)cc12 [Compound 51, 8-bromo-2-(2-hydroxyphenyl)[1]benzofuro[3,2-d]pyrimidin-4(3H)-one]
< 10 µM |  | O=C(Nc1ccc(Cl)c(-c2nc3c(oc4ccc(Br)cc43)c(=O)[nH]2)c1)c1cccnc1 [Compound 327, N-[3-(8-bromo-4-oxo-3,4-dihydro[1]benzofuro[3,2-d]pyrimidin-2-yl)-4-chlorophenyl]pyridine-3-carboxamide]
< 10 µM |  | O=C(Nc1ccc(Cl)c(-c2nc3c(oc4ccc(Br)cc43)c(=O)[nH]2)c1)c1ccc(Br)cn1 [Compound 338, 5-bromo-N-[3-(8-bromo-4-oxo-3,4-dihydro[1]benzofuro[3,2-d]pyrimidin-2-yl)-4-chlorophenyl]pyridine-2-carboxamide]
< 10 µM |  | COc1ccc(C(=O)Nc2ccc(Cl)c(-c3nc4c(oc5ccc(Br)cc54)c(=O)[nH]3)c2)cn1 [Compound 357, N-[3-(8-bromo-4-oxo-3,4-dihydro[1]benzofuro[3,2-d]pyrimidin-2-yl)-4-chlorophenyl]-6-(methyloxy)pyridine-3-carboxamide]
< 10 µM |  | CN1CCN(Cc2nc3c(oc4ccc(F)cc43)c(=O)[nH]2)CC1 [Compound 367, 8-Fluoro-2-[(4-methylpiperazin-1-yl)methyl][1]benzofuro[3,2-d]pyrimidin-4(3H)-one]
< 10 µM |  | O=c1[nH]c(C(c2ccccc2)N2CCNCC2)nc2c1oc1ccc(Br)cc12 (stereo not drawn) [Compound 384, 8-bromo-2-[phenyl(piperazin-1-yl)methyl][1]benzofuro[3,2-d]pyrimidin-4(3H)-one]
< 10 µM |  | O=C(Nc1ccc(Cl)c(-c2nc3c(oc4ccc(Br)cc43)c(=O)[nH]2)c1)C1CCNCC1 [Compound 392, ′N-[3-(8-bromo-4-oxo-3,4-dihydro[1]benzofuro[3,2-d]pyrimidin-2-yl)-4-chlorophenyl]piperidine-4-carboxamide]
< 10 µM |  | Nc1ccc(-c2nc3c(oc4ccccc43)c(=O)[nH]2)c(Cl)c1 [Compound 399, 2-(4-amino-2-chlorophenyl)[1]benzofuro[3,2-d]pyrimidin-4(3H)-one]
< 10 µM |  | CN1CCN(Cc2nc3c(nc4ccc(Br)cn43)c(=O)[nH]2)CC1 [Compound 417, 8-bromo-2-[(4-methylpiperazin-1-yl)methyl]pyrido[1,2-e]purin-4(3H)-one]
< 10 µM |  | O=c1[nH]c(CN2CC[C@H](O)C2)nc2c1nc1ccc(Br)cn12 [Compound 418, 8-bromo-2-{[(3S)-3-hydroxypyrrolidin-1-yl]methyl}pyrido[1,2-e]purin-4(3H)-one]
< 10 µM |  | O=c1[nH]c(-c2ccc3nc[nH]c3c2)nc2c1oc1ccc(Br)cc12 [Compound 423, 2-(1H-benzimidazol-6-yl)-8-bromo[1]benzofuro[3,2-d]pyrimidin-4(3H)-one]
< 10 µM |  | O=c1[nH]c(CN2CC[C@H](O)C2)nc2c1oc1ccc(NC3CCCCC3)cc12 [Compound 449, 8-(cyclohexylamino)-2-{[(3S)-3-hydroxypyrrolidin-1-yl]methyl}[1]benzofuro[3,2-d]pyrimidin-4(3H)-one]
< 10 µM |  | CN1CCN(Cc2nc3c(oc4ccc(C#CCO)cc43)c(=O)[nH]2)CC1 [Compound 450, 8-(3-hydroxyprop-1-yn-1-yl)-2-[(4-methylpiperazin-1-yl)methyl][1]benzofuro[3,2-d]pyrimidin-4(3H)-one]
 | < 10 µM | COc1ccc2oc3c(=O)[nH]c(-c4ccc(N)cc4Cl)nc3c2c1 [Cpd 129, 2-(4-amino-2-chlorophenyl)-8-(methyloxy)[1]benzofuro[3,2-d]pyrimidin-4(3H)-one]
 | < 10 µM | COc1ccc2oc3c(=O)[nH]c(-c4ccc(NCC5CCN(C(=O)OC(C)(C)C)CC5)cc4Cl)nc3c2c1 [Cpd 137, 1,1-dimethylethyl 4-[({3-chloro-4-[8-(methyloxy)-4-oxo-3,4-dihydro[1]benzofuro[3,2-d]pyrimidin-2-yl]phenyl}amino)methyl]piperidine-1-carboxylate]
